Data from a melting point compilation (Tetko et al.; mined from patent text by program, amines drawn as free bases though some values may be those of a salt).

| melting point [°C] | Compound |
| --- | --- |
| 206 | Cc1cc(-c2cccc(C3=Nc4ccc(-n5cccc5)cc4NC(=O)C3)c2)ccn1 |
| 156 to 157 | CC(=O)N[C@@H](C)COc1cc(-c2nc3cc(OCC4CC4)ccc3o2)on1 |
| 141 to 142 | CCc1noc(-c2c[nH]c(-c3cccc(Oc4ccc(Br)cn4)c3)n2)n1 |
| 206 to 208 | NS(=O)(=O)c1nc2ccc(OC(=O)Cc3ccc(Cl)cc3)cc2s1 |
| 134 to 135 | OCc1ccc(OCc2csc(-c3ccccc3)n2)nc1 |
| 208 to 209 | CC(C)C1(C)N=C(c2nc3ccc(OC(F)F)cc3cc2C(=O)O)NC1=O (stereo unspecified) |
| 268 to 269 | Cc1ccc(S(=O)(=O)Nc2cccc3cc(C(=O)O)[nH]c23)cc1 |
| 55 to 56 | O=[N+]([O-])c1cc(Cl)ccc1-n1cccc1 |
| 85 to 90 | CCONC(=O)c1ccc(-c2cccc(CN(C)Cc3ccccc3)c2)cn1 |
| 204 to 206 | COC(=O)C(NS(=O)(=O)c1ccc(-c2ccc(NC(=O)c3oc4cccc(CO[Si](C)(C)C(C)(C)C)c4c3C)cc2)cc1)C(C)C (stereo unspecified) |
| 122 to 125 | COC(=O)c1nn(-c2ccc(CBr)cc2)nc1C |
| 215 | CC(=O)Nc1ccc(C(=O)c2cccnc2)cc1 |
| 137 to 138 | CCC(C)N1C(=O)c2ccccc2Oc2ncccc21 (stereo unspecified) |
| 244 | O=C(NC(Cc1ccc(OCc2ccccc2)cc1)C(=O)O)c1cn2cc(-c3cccnc3)ccc2n1 (stereo unspecified) |
| 195 to 198 | COC(=O)C1Cc2c([nH]c3ccccc23)C(c2cc3ccccc3o2)N1 (stereo unspecified) |
| 187 to 188 | Cc1c(Cc2cccc(C(F)(F)F)c2)sc2c(-c3cccc(C(=O)NCC(N)=O)c3)cccc12 |
| 208 to 210 | COc1ccc(-c2ccccn2)c(S(=O)c2nc3cc(OC)c(OC)cc3[nH]2)c1 (stereo unspecified) |
| 190 to 200 | CC(C)(C)OC(=O)NCC(=O)Nc1ccc2c(c1)-c1c(c(C(=O)C(C#N)C(=O)Nc3ccccc3)nn1-c1ccccc1)CS2 (stereo unspecified) |
| 148 | Cc1c(-c2ccncc2)sc(-c2ccncc2)c1CF |
| 155 to 162 | Nc1nc2ccc(S(=O)(=O)n3c(CCCC(=O)O)cc4cc(Cl)ccc43)cc2s1 |
| 138 to 139 | O=C(NCCCCOc1ccc(-n2ccnc2)cc1)c1ccc(Cl)cc1 |
| 121 | Nc1ccc(Sc2ccccn2)cn1 |
| 80 to 82 | Cc1nc(-c2c(F)cccc2F)nn1-c1ccccc1C(F)(F)F |

| melting point [°C] | Compound |
| --- | --- |
| 115 to 117 | COc1cccc(C2=CCN(C(=O)CSCc3c[nH]c4ccccc34)CC2)c1 |
| 147 to 148 | CCNC(=O)c1cc(NS(=O)(=O)c2ccc(C(F)(F)F)cn2)ccc1Oc1cncc(Cl)c1 |
| 67 to 68 | CCCCCCCNC(=O)n1nc(Oc2ncc(C(F)(F)F)cc2Cl)c(Cl)c1C |
| 54 to 56 | CCCCOc1ccc(/C=C/c2cc(OC)cc(OC)c2)cc1 |
| 176 to 177 | Cc1nc(N)c2nc(C)n(CCOc3ccccc3)c2c1C |
| 115 to 116 | OC(Cn1cncn1)(c1ccc(F)cc1)c1ccccc1Cl (stereo unspecified) |
| 237 to 239 | CC(C)c1ccc(-c2ncc(-c3cccc(C(=O)O)c3)s2)cc1 |
| 148 to 151 | CC(=O)Oc1cc(C(C)C)ccc1C1(OC(C)=O)C(=O)c2cccc(N)c2C1=O (stereo unspecified) |
| 246 to 249 | Cc1cc(C2=NNC(C(N)=O)Cc3cc4c(cc32)OCO4)ccc1[N+](=O)[O-] (stereo unspecified) |
| 170 to 172 | CC(Oc1ccnc2ccccc12)C(=O)Nc1ccc(Cl)cc1 (stereo unspecified) |
| 129 to 131 | c1cc(Cc2nnn[nH]2)cc(OCc2ncc3ccccc3n2)c1 |
| 194 to 195 | CCc1cnc2c(NC(=O)c3c(Cl)cccc3Cl)cccc2c1C(C)=O |
| 166 to 168 | CC(C)C[C@H](NC(=O)[C@H](Cc1c[nH]cn1)NC(=O)[C@H](Cc1cccc2ccccc12)NC(=O)OCc1ccccc1)[C@@H](O)CC=O |
| 168 to 169 | CNC(=O)Cc1c(C)n(-c2ccnc3cc(Cl)ccc23)c2ccc(OC)cc12 |
| 172 | Cc1cc(C)nc(NC(=O)NS(=O)(=O)c2c([N+](=O)[O-])ccc3c2CCC3)n1 |
| > 280 | O=C(NN=Cc1c(O)ccc2cc(O)ccc12)c1cc2ccccc2cc1O |
| 192 to 193 | CCn1nc(C(=O)OC(C)C)cc(Nc2cncc3ccccc23)c1=O |
| 245 to 247 | Cc1cccc(NC(=O)NC2CN(C(=O)CN3CCN(C)CC3)c3ccccc3N(CC(=O)c3ccccc3C)C2=O)c1 (stereo unspecified) |
| 107 to 109 | CCOC(=O)Cc1ccc(NC(=O)Nc2ccccc2OC)cc1 |
| 101 to 102 | O=C1NC(=O)C2(O1)C(=O)N(Cc1ccc(Cl)c(Cl)c1)c1c(F)cccc12 (stereo unspecified) |
| 142 to 143 | CN1Cc2ccccc2C(Oc2ccc([N+](=O)[O-])cc2)C1 (stereo unspecified) |
| 155 to 156 | Cc1c(SCCCSc2ccc3ncc([N+](=O)[O-])n3n2)ccnc1C(S)c1nc2cc(S(C)(=O)=O)ccc2[nH]1 (stereo unspecified) |

The next lines start with the molecule.

| Compound | melting point [°C] |
| --- | --- |
| O=[N+]([O-])c1cc(C(F)(F)F)ccc1C(O)c1cnoc1C1CC1 (stereo unspecified) | 76 |
| CC(C)(C)c1cc(CCc2cc(C=O)cc(CCc3cc(C(C)(C)C)cc(C(C)(C)C)c3)c2)cc(C(C)(C)C)c1 | 74 to 75 |
| O=C(Nc1ccc(C(=O)N2Cc3ccccc3Nc3ccccc32)c(Cl)c1)c1ccccc1-c1ccccc1 | 158 to 184 |
| CCCCC=NNC1=NCCc2ccccc21 | 147 to 148 |
| NCCCNc1nc2c(NCc3ccccc3)ncnc2n1C1OC(CO)C(O)C1O (stereo unspecified) | 72 to 76 |
| COc1cc(Oc2cccc3c2NC(=O)C3)cc(OC)c1OC | 170 to 171 |
| N#CC(=NO)c1cccs1 | 103 to 104 |
| N#Cc1cc(N)ccc1N1CCC(CCO)CC1 | 60 to 63 |
| O=C1NC(=S)S/C1=C\c1ccccc1Nc1cccc(C(F)(F)F)c1 | 234 to 236 |
| CN1C(=S)N(c2ccc(C#N)c(C(F)(F)F)c2)C(=N)C1(C)C | 173 to 174 |
| COc1c(CBr)cccc1CBr | 83.5 to 85.5 |
| NC(CCc1ccccc1CP(=O)(O)O)C(=O)O (stereo unspecified) | 247 to 249 |
| C[C@@H](CO)Oc1ccc2cc(Br)ccc2c1 | 71 to 72 |
| CCOC(=O)c1[nH]c2c(O)cccc2c1C | 187 to 190 |
| CCOc1cc2c(Cl)ncnc2cc1OC(C)C | 104 to 106 |
| Clc1ccc2c(c1)[nH]c1cc(Cl)ccc12 | 188 to 189 |
| Cc1cnc(NC(=O)[C@H]2[C@H](c3ccccc3)C2(C)C)s1 (relative stereo) | 132 to 135 |
| CCCCCCCCCCCCC(C)COc1ccc(C(C)=O)o1 (stereo unspecified) | 45 to 47 |
| CCCCCCCCCC#CCCCCCCCCCCCO | 38 to 39 |

| Compound | melting point [°C] |
| --- | --- |
| CC(C)(C)c1cc(C(C(=O)O)c2ccc(O)c(C(C)(C)C)c2)ccc1O | 173 |
| O=C(O)C=C1SC(=NC2CCCCC2)N(C2CCCCC2)C1=O | 189 to 190 |
| COc1cc(CO)cc2c1OCO2 | 66 to 67 |
| O=C(O)C(OCCC1CCN(c2ccncc2)CC1)Oc1ccccc1 (stereo unspecified) | 247 to 249 |
| CNc1ccccc1C(=O)COC(=O)c1ccccc1 | 85 to 87 |
| COc1ccc(C2=NC(C#N)CN2c2ccc(OCc3ccccc3)cc2)cc1 (stereo unspecified) | 121 to 122 |
| O=C1CCCCCN1C(=O)c1ccccc1 | 69 |
| CN(C)C(=O)Nc1ccc2c(c1)C(CN1CCC(c3ccc(F)cc3)CC1)CC2 (stereo unspecified) | 141 to 144 |
| CC(C)(C)OC(=O)N[C@H](Cc1ccccc1)C(=O)NCC(=O)OCc1ccccc1 | 133 to 134 |
| COc1cc2cc(C(=O)O)[nH]c2c2c1OCCC2=O | 312 |
| COc1cc2c(cc1F)CCN=C2C1(c2ccc(Cl)cc2Cl)CC1 | 151 to 154 |
| Fc1cncc(F)c1C1=NC(c2ccc(I)cc2)CO1 (stereo unspecified) | 84 to 86 |
| CON1CCC(=Cc2cc(C(C)(C)C)c(O)c(C(C)(C)C)c2)C1=O | 169 |
| COc1cc(OC)c2c(=O)c(O)c(-c3ccc(OC)c(OC)c3)oc2c1 | 192 to 194 |
| CCC(=O)N1CCC(NC(=O)Nc2ccc(C(F)(F)F)cc2)CC1 | 224 to 228 |
| O=C(Nc1ccccc1)Nc1ccnc(O)c1 | 198 to 200 |
| CC(CCOc1cccc(=O)n1O)CC(C)(C)C (stereo unspecified) | 130 to 131 |
| c1ccc(N2CCN(CCc3nnn[nH]3)CC2)cc1 | 190 to 194 |
| O=C1C(=O)c2ccc(Cl)cc2C2=C1SCC1(CCNCC1)O2 | > 300 |

| Compound | melting point [°C] |
| --- | --- |
| COC(=O)C(c1cc2c(cc1Cl)OCO2)c1c[nH]c2cc(Br)ccc12 (stereo unspecified) | 172 to 174 |
| Cc1cccc2sc(=NC(=O)C(F)(F)F)n(N)c12 | 160 to 161 |
| CCNc1c(S(=O)C(F)(F)F)c(C)nn1-c1c(Cl)cc(C(F)(F)F)cc1Cl (stereo unspecified) | 76 |
| O=C(c1ccc(Cl)cc1)c1ccccc1N=C=S | 162 to 166 |
| CCNc1c(C(=O)O)ccc(Br)c1OCC | 129 to 139 |
| N#Cc1ccccc1Oc1ccc(-c2cn(C3CCOCC3)c3ncnc(N)c23)cc1 | 125 |
| CN1CCC(C2c3ccccc3CCn3ncnc32)CC1 (stereo unspecified) | 134 |
| O=C1CC(c2ccccc2)c2ccc(Cl)cc21 (stereo unspecified) | 84 to 92 |
| CCCn1nc2c(N)nc3ccccc3c2c1NCCC1CCN(C(C)=O)CC1 | 203 to 206 |
| O=C(CCc1c(C=C2C(=O)Nc3ccccc32)[nH]c2c1CCCC2)NCCN1CCOCC1 | 256 to 258 |
| CCNc1ccc(N2CCOC2=O)cc1[N+](=O)[O-] | 140 |
| CC1(C)Oc2ccsc2C(NC(=O)c2ccc(C(F)(F)F)cc2)C1O (stereo unspecified) | 162 to 163 |
| O=C(Nc1ccc(I)cc1Cl)C(F)(F)F | 51 to 52 |
| CONc1nc(C#Cc2ccccc2)nc2c1ncn2[C@@H]1O[C@H](CO)[C@@H](O)[C@H]1O | 175 to 177 |
| COC1=C(OC)C(=O)C(CCCCCCCCCCO)=C(C)C1=O | 52 |
| CC(C)c1cc(C(=O)CNc2ccc(C(=O)O)cc2)oc1C(C)C | 184 to 186 |
| COc1ccc(Nc2ccccc2)c2c1c(CCN(C)C)cn2C | 158 to 160 |
| CC12CCC(=O)C=C1CCC1C2CCC2(C)C(c3cccnc3)=CCC12 (stereo unspecified) | 148 to 150 |
